Test results: patent publication US10874743B2, “IRAK degraders and uses thereof” (Kymera Therapeutics, Inc., priority 2017, dated 2020)
“And” between values parts separate entries of the source, which are not always exact repeats. Equal values may be shown once. Read-outs that look alike come from different tables or passages of the source.

Test: Pharmacokinetics in CD-1 mice (plasma concentrations, PK parameters)
Assay type: in vivo
Conditions: for AUC(0-t): read-out: AUC0-last; for MRT inf: read-out: MRT0-inf; for MRT last: read-out: MRT0-last; for Vd: read-out: Vdss
Procedure: Pharmacokinetics for I-127, I-172 and I-210 were determined in Sprague Dawley rats or CD-1 mice by dosing intravenous (IV), subcutaneous (SC) or per oral (PO) using facility SOPs and sampling plasma at required time points. Species, formulation, route of administration and time points samples are listed below for each compound.
Compounds were extracted from plasma, injected on reverse phase HPLC, eluted with a gradient from 5% to 95% acetonitrile in water and quantified by mass spectrometry with internal standard. Data are expressed in ng compound per mL of plasma.

[1] = CD-1, mouse, plasma, iv, 2 mg/kg, mouse (CD1) iv 2 mg/kg, Mean IV
[2] = CD-1, mouse, plasma, sc, 30 mg/kg, mouse (CD1) sc 30 mg/kg, Mean SC
[3] = CD-1, mouse, plasma, sc, 30 mg/kg, mouse (CD1) sc 30 mg/kg, individual M07-M09
[4] = mouse (CD1) iv 2 mg/kg, Mean IV
[5] = mouse (CD1) iv 2 mg/kg, individual M01-M03, 2 mg/kg
[6] = mouse (CD1) sc 30 mg/kg, individual M07-M09
[7] = mouse (CD1) sc 30 mg/kg, individual M07-M09, 30 mg/kg

## NC(=O)c1nn(-c2ccc(C(=O)NCCOCCOCCNc3cccc4c3C(=O)N(C3CCC(=O)NC3=O)C4=O)cc2)cc1NC(=O)c1coc(-c2ccnc(NCC(F)(F)F)c2)n1 (stereo not shown) [I-127, N-[3-carbamoyl-1-[4-[2-[2-[2-[[2-(2,6-dioxo-3-piperidyl)-1,3-dioxo-isoindolin-4-yl]amino]ethoxy]ethoxy]ethylcarbamoyl]phenyl]pyrazol-4-yl]-2-[2-(2,2,2-trifluoroethylamino)-4-pyridyl]oxazole-4-carboxamide]
CD-1, mouse, plasma, iv, 2 mg/kg, mouse (CD1) iv 2 mg/kg, 5 min, Mean IV, read-out: concentrations
  concentration at 5 min: 1290 ng/mL
CD-1, mouse, plasma, iv, 2 mg/kg, mouse (CD1) iv 2 mg/kg, 0.500 h, Mean IV, read-out: concentrations
  concentration at 0.5 h: 102 ng/mL
CD-1, mouse, plasma, iv, 2 mg/kg, mouse (CD1) iv 2 mg/kg, 1.00 h, Mean IV, read-out: concentrations
  concentration at 1 h: 49.7 ng/mL
CD-1, mouse, plasma, iv, 2 mg/kg, mouse (CD1) iv 2 mg/kg, 2.00 h, Mean IV, read-out: concentrations
  concentration at 2 h: 31.7 ng/mL
CD-1, mouse, plasma, iv, 2 mg/kg, mouse (CD1) iv 2 mg/kg, 4.00 h, Mean IV, read-out: concentrations
  concentration at 4 h: 12.2 ng/mL
CD-1, mouse, plasma, iv, 2 mg/kg, mouse (CD1) iv 2 mg/kg, 6.00 h, Mean IV, read-out: concentrations
  concentration at 6 h: 5.31 ng/mL
CD-1, mouse, plasma, iv, 2 mg/kg, mouse (CD1) iv 2 mg/kg, 24.0 h, individual M01-M03, read-out: concentrations
  concentration at 24 h: 2.2 ng/mL
[1]
  clearance: 84.9 mL/min/kg
  half-life: 3.65 h
  AUC(0-t): 496 ng·h/mL
  MRT inf: 1.54 h
  MRT last: 1.1 h
  Vd: 6.25 L/kg
CD-1, mouse, plasma, iv, 2 mg/kg, mouse (CD1) iv 2 mg/kg, Mean IV, read-out: AUC0-inf
  AUC(0-inf): 511 ng·h/mL
CD-1, mouse, plasma, iv, 2 mg/kg, mouse (CD1) iv 2 mg/kg, Mean IV, read-out: C0
  C0: 2160 ng/mL
CD-1, mouse, plasma, iv, 2 mg/kg, mouse (CD1) iv 2 mg/kg, individual M01-M03
  Vd: 5.73 L/kg
[2]
  AUC(0-t): 39.8 ng·h/mL
  MRT last: 11.3 h
CD-1, mouse, plasma, sc, 30 mg/kg, mouse (CD1) sc 30 mg/kg, Mean SC, read-out: Cmax
  Cmax: 2.91 ng/mL
CD-1, mouse, plasma, sc, 30 mg/kg, mouse (CD1) sc 30 mg/kg, Mean SC, read-out: Tmax
  Tmax: 2.67 h
[3]
  half-life: 39.2 h
  AUC(0-t): 33 ng·h/mL
  MRT inf: 54.2 h
  MRT last: 11.7 h
CD-1, mouse, plasma, sc, 30 mg/kg, mouse (CD1) sc 30 mg/kg, individual M07-M09, read-out: AUC0-inf
  AUC(0-inf): 144 ng·h/mL
CD-1, mouse, plasma, sc, 30 mg/kg, mouse (CD1) sc 30 mg/kg, individual M07-M09, read-out: Tmax
  Tmax: 2 h
CD-1, plasma, mouse (CD1) sc 30 mg/kg, Mean SC
  bioavailability: 0.534%
Mouse (CD1) iv 2 mg/kg, 5 min, individual M01-M03, 2 mg/kg
  concentrations: 2310 ng/mL and 831 ng/mL and 738 ng/mL
Mouse (CD1) iv 2 mg/kg, 0.500 h, individual M01-M03, 2 mg/kg
  concentrations: 166 ng/mL and 58.7 ng/mL and 82.1 ng/mL
Mouse (CD1) iv 2 mg/kg, 1.00 h, individual M01-M03, 2 mg/kg
  concentrations: 91 ng/mL and 22.3 ng/mL and 35.8 ng/mL
Mouse (CD1) iv 2 mg/kg, 2.00 h, individual M01-M03, 2 mg/kg
  concentrations: 51.5 ng/mL and 12.7 ng/mL and 30.9 ng/mL
Mouse (CD1) iv 2 mg/kg, 4.00 h, individual M01-M03, 2 mg/kg
  concentrations: 18.6 ng/mL and 7.08 ng/mL and 10.9 ng/mL
Mouse (CD1) iv 2 mg/kg, 6.00 h, individual M01-M03, 2 mg/kg
  concentrations: 8.13 ng/mL and 3.38 ng/mL and 4.42 ng/mL
Mouse (CD1) iv 2 mg/kg, 24.0 h, individual M01-M03, 2 mg/kg
  concentrations: BQL
[4]
  AUCExtra: 2.97%
  AUMCExtra: 29.9%
[5]
  AUC0-last: 896 ng·h/mL and 278 ng·h/mL and 316 ng·h/mL
  AUC(0-inf): 919 ng·h/mL and 288 ng·h/mL and 325 ng·h/mL
  AUCExtra: 2.57% and 3.55% and 2.80%
  AUMCExtra: 33.8% and 34.9% and 20.8%
  C0: 3910 ng/mL and 1412 ng/mL and 1145 ng/mL
  Cl: 36.3 mL/min/kg and 116 mL/min/kg and 103 mL/min/kg
  MRT0-inf: 2.63 h and 0.916 h and 1.08 h
  MRT0-last: 1.79 h and 0.618 h and 0.882 h
  T1/2: 7.43 h and 2.09 h and 1.43 h
  Tlast: 24.0 h and 6.00 h (2×)
  Vdss: 6.36 L/kg and 6.67 L/kg
Mouse (CD1) po 30 mg/kg, 0.500 h, individual M04-M06
  concentrations: BQL
Mouse (CD1) po 30 mg/kg, 1.00 h, individual M04-M06
  concentrations: BQL
Mouse (CD1) po 30 mg/kg, 2.00 h, individual M04-M06
  concentrations: BQL
Mouse (CD1) po 30 mg/kg, 4.00 h, individual M04-M06
  concentrations: BQL
Mouse (CD1) po 30 mg/kg, 6.00 h, individual M04-M06
  concentrations: BQL
Mouse (CD1) po 30 mg/kg, 24.0 h, individual M04-M06
  concentrations: BQL
Mouse (CD1) sc 30 mg/kg, 0.500 h, Mean SC
  concentrations: 1.81 ng/mL
Mouse (CD1) sc 30 mg/kg, 0.500 h, individual M07-M09, 30 mg/kg
  concentrations: 1.29 ng/mL and 2.28 ng/mL and 1.85 ng/mL
Mouse (CD1) sc 30 mg/kg, 1.00 h, Mean SC
  concentrations: 2 ng/mL
Mouse (CD1) sc 30 mg/kg, 1.00 h, individual M07-M09, 30 mg/kg
  concentrations: 1.87 ng/mL and 2.51 ng/mL and 1.61 ng/mL
Mouse (CD1) sc 30 mg/kg, 2.00 h, Mean SC
  concentrations: 2.88 ng/mL
Mouse (CD1) sc 30 mg/kg, 2.00 h, individual M07-M09, 30 mg/kg
  concentrations: 2.21 ng/mL and 4.61 ng/mL and 1.82 ng/mL
Mouse (CD1) sc 30 mg/kg, 4.00 h, Mean SC
  concentrations: 1.59 ng/mL
Mouse (CD1) sc 30 mg/kg, 4.00 h, individual M07-M09, 30 mg/kg
  concentrations: 1.01 ng/mL and 1.86 ng/mL and 1.9 ng/mL
Mouse (CD1) sc 30 mg/kg, 6.00 h, Mean SC
  concentrations: 1.8 ng/mL
Mouse (CD1) sc 30 mg/kg, 6.00 h, individual M07-M09, 30 mg/kg
  concentrations: 1.41 ng/mL and 2.82 ng/mL and 1.18 ng/mL
Mouse (CD1) sc 30 mg/kg, 24.0 h, Mean SC
  concentrations: 1.38 ng/mL
Mouse (CD1) sc 30 mg/kg, 24.0 h, individual M07-M09, 30 mg/kg
  concentrations: 1.3 ng/mL and 1.58 ng/mL and 1.26 ng/mL
Mouse (CD1) sc 30 mg/kg, Mean SC
  Tlast: 24.0 h
[6]
  AUCExtra: 62.1%
  AUMCExtra: 92.4%
  Tlast: 24.0 h
[7]
  AUC0-last: 54.5 ng·h/mL and 31.7 ng·h/mL
  Cmax: 2.21 ng/mL and 4.61 ng/mL and 1.90 ng/mL
  MRT0-last: 10.9 h and 11.4 h
  Tmax: 4.00 h
